Test results: publication PMC10791743, “Selective CK1α degraders exert antiproliferative activity against a broad range of human cancer cell lines” (Nature Communications, 2024)
≈ marks a conversion by molar mass, not a printed value. Where “and” joins values, the source holds several entries; their conditions need not be identical. Equal values may be shown once. Read-outs that look alike come from different tables or passages of the source.

Assays:
[1] = Aqueous solubility assay; assay type: physicochemical; conditions: DPBS buffer
Protocol: page 30: ADME Methods Aqueous solubility assay: Solubility assays were conducted using a Biomek FX lab automation workstation (Beckman Coulter, Inc., Fullerton, CA) and μSOL Evolution software (pION Inc., Woburn, MA). In a 96-well microplate (Cat. No: 3363, Corning Incorporated, Salt Lake, UT), 10 μL of a 10 mM test compound stock in DMSO was added to 190 μL 1-propanol (Thermo Scientific, spectroscopy, Cat. No: 434360010, Fair Lawn, NJ) to create a reference stock plate. From this reference stock plate, 5 μL solutions were mixed with 70 μL 1-propanol and 75 μL Dulbecco's Phosphate Buffered Saline (DPBS, 1X, GibcoTM, Cat. No: 14190-144, Thermo Fisher Scientifics, Waltham, MA) to generate the reference plate (high sensitivity UV plate, Cat. No: 110286, pION Inc., Woburn, MA). In a 96-well storage plate (Cat. No: 201276-100, Agilent, Santa Clara, CA), 6 μL of a 10 mM test compound stock was added to 600 μL buffer, mixed, sealed, and incubated at room temperature for 18 hours. […] UV spectra of the reference and sample plates were then read, and calculations based on the area under the curve (AUC) of the UV spectra were performed using μSOL Evolution software. […] The medium in the wells was changed every other day, and the trans epithelial electrical resistance (TEER) value was measured

[2] = Pharmacokinetics in female CD1 mice; assay type: in vivo, mouse; conditions: mouse; for half-life: CD1, mouse, plasma
Protocol: Three mice were housed in each cage. […] Temperature and humidity were recorded by an auto-controlled data logger system. All the animals were provided a laboratory rodent diet (Altromin, Germany). Reverse osmosis water treated with ultraviolet light was provided ad libitum. Total 27 mice (n = 9/group) were divided into three groups as Group 1, Group 2, and Group 3 with a sparse sampling design (3 mice/time points). […] The formulation vehicle for IV was 5% v/v NMP, 5% v/v Solutol HS-15 and 90% v/v Normal saline, and for PO & IP was 10%v/v NMP, 10%v/v Solutol HS-15. 50%v/v PEG-400 and 30%v/v HPβCD (20%w/v) in saline. […] Immediately after blood collection, plasma was harvested by centrifugation at 12,300×g, 10 min at 4 °C and samples were stored at −70 ± 10 °C until bioanalysis. Concentrations of SJ3149 in mouse plasma samples were determined by fit-for-purpose LC–MS/MS method. Non-Compartmental-Analysis tool of Phoenix WinNonlin® (Version 8.3) was used to assess the pharmacokinetic parameters. Peak plasma concentration (Cmax) and time for the peak plasma concentration (Tmax) were the observed values. The area under the concentration–time curve (AUClast) was calculated by the linear trapezoidal rule. The terminal elimination rate constant, ke was determined by regression analysis of the linear terminal portion of the log plasma concentration-time curve. Clearance was estimated as Dose/AUCinf and Vss as CL*MRT.

[3] = system: MOLM-13 cells overexpressing FLAG-tagged wild type CK1α; test: CK1α mutant rescue, CTG viability, FLAG-CK1α wild type MOLM-13; assay type: cell-based, human
Protocol: To evaluate the contribution of the CK1α degradation in SJ3149-mediated cytotoxicity, we utilized the degradation-resistant mutant CK1α G40N[41]. MOLM-13 cells were transduced with lentivirus to overexpress FLAG-tagged wild type CK1α or the G40N mutant, which removes the essential glycine in the CK1α degron G-loop.
The media was changed after cells rested in the 37 °C incubator overnight. […] As described above in the Molecular Glue Library Screening section, transduced MOLM-13 cells were seeded in 384-well plates at 1250 cells per well and allowed to rest overnight. 30 nl of CK1α degraders of interest were deposited on the cells using an Echo 650 acoustic liquid handler […]. […] This was done twice for a total of six technical replicates.

[4] = female, CD1, plasma, IP 50 mg/kg
[5] = female, CD1, plasma, IV 3 mg/kg
[6] = female, CD1, plasma, PO 50 mg/kg

## O=C1CCC(N2Cc3cc(Nc4noc5ccccc45)ccc3C2=O)C(=O)N1 (centres unmarked) [SJ3149]
[1]
  solubility at 18 h: 36 µM (≈ 13.5 µg/mL)
[2]; PO 50 mg/kg, 50 mg/kg
  T1/2: 2.57 h
[2]; female, ip, 50 mg/kg, IP 50 mg/kg
  half-life: 185 min
[2]; female, iv, 3 mg/kg, IV 3 mg/kg
  half-life: 46.2 min
[2]; female, po, 50 mg/kg, PO 50 mg/kg
  half-life: ~180 min
[2]; [4]
  AUC(0-t): 17000 ng·h/mL
  Tmax: 15 min
  bioavailability: 74%
[2]; female, CD1, plasma, IP 50 mg/kg, read-out: C0/Cmax
  Cmax: 6680 ng/mL
[2]; [5]
  AUC(0-t): 1370 ng·h/mL
  clearance: 36.2 mL/min/kg
[2]; female, CD1, plasma, IV 3 mg/kg, read-out: C0/Cmax (C0 back extrapolated)
  Cmax: 4510 ng/mL
[2]; female, CD1, plasma, IV 3 mg/kg, read-out: Vss
  Vd: 0.67 L/kg
[2]; [6]
  AUC(0-t): 2850 ng·h/mL
  Tmax: 15 min
  bioavailability: 12%
[2]; female, CD1, plasma, PO 50 mg/kg, read-out: C0/Cmax
  Cmax: 4740 ng/mL
[2]; female, CD1, plasma, PO 50 mg/kg, read-out: C0/Cmax (molar)
  Cmax: 12.6 µM
[3]; Concentration 0.000542
  cell viability percentages, CK1a: 105.205% and 58.6715% and 64.466% and 67.6161% and 69.6541% and 82.1036%
[3]; Concentration 0.001625
  cell viability percentages, CK1a: 74.2908% and 52.9731% and 67.1789% and 57.7783% and 62.7672% and 68.828%
[3]; Concentration 0.004875
  cell viability percentages, CK1a: 36.1307% and 42.7391% and 40.1045% and 39.1839% and 40.0413% and 49.9053%
[3]; Concentration 0.043872
  cell viability percentages, CK1a: 2.187% and 2.943% and 4.508% and 8.798% and 6.315% and 7.182%
[3]; Concentration 0.131617
  cell viability percentages, CK1a: 3.39% and 3.498% and 5.044% and 4.581% and 3.4782% and 4.037%
[3]; Concentration 0.394851
  cell viability percentages, CK1a: 2.449% and 1.756% and 2.718% and 2.322% and 1.473% and 1.9709%
[3]; Concentration 1.18455
  cell viability percentages, CK1a: 1.709% and 1.723% and 2.012% and 1.573% and 1.103% and 1.1327%
[3]; Concentration 3.55366
  cell viability percentages, CK1a: 1.548% and 0.8978% and 0.8701% and 0.5259% and 0.4164% and 0.8076%
[3]; FLAG-CK1a WT cells
  Bottom (line fit, sigmoidal 4PL) of cell viability, CK1a: 1.012%
  Top (line fit, sigmoidal 4PL) of cell viability, CK1a: 80.73%
[3]; Homo sapiens, MOLM-13, read-out: IC50 (line fit, sigmoidal 4PL) of cell viability, CK1a
  IC50: 5.26 nM
